Key:
HIV-1 protease [1] = biological target: T1, HIV-1 protease (Human immunodeficiency virus type 1 group M subtype B, UniProt P04585); experiment: Zhang-Poorman kinetic assay of HIV-1 protease dimerization inhibition; format: biochemical; details: for Ki: calculated from y-intercepts using the Zhang-Poorman equation, HIV-1 protease 0.6 to 5.1 nM
Procedure: If a compound acts as a dimerization inhibitor, the Zhang-Poorman plot gives a line with a slope similar to that obtained for the uninhibited control but with a different intercept; active-site inhibitors yield different slopes compared with the uninhibited control. For this assay, HIV-1 protease was used at concentrations from 0.6 to 5.1 nM. Substrate solutions were diluted to ¼ solution from the original solution, and then used for the kinetic assay. HIV-1 protease (40 μL) was incubated with or without an inhibitor (10 μL) at the desired concentration for 15 min at 25° C. The diluted substrate solution (50 μL) was added to the incubated solution. Fluorescence was monitored for 15 min at 30° C. in a fluorescence microplate reader (BioTek) at Ex/Em=340/490 nm for C-protected inhibitors, and Ex/Em=490/520 nm for deprotected inhibitors.
Slopes for 1lai-H (8.2±0.6) and 1fla-H (9.3±1.2) compared with uninhibited HIV-1 (9.0±0.6) have different y-intercepts (1lai-H y-intercepts 0.19, 1fla-H y-intercepts 0.73, control y-intercepts 0.013). y-Intercepts of uninhibited HIV-1 have different values between experiments for C-protected and deprotected compounds because the substrates used in the assay are different (see above). The results are consistent with 1-H-1-^tBu (side-chains as indicated above) acting as dimerization inhibitors. We note that it has been reported that inhibition of HIV-1 protease activities by dimerization inhibitors is dependent on the time of pre-incubation with the enzyme and inversely dependent on enzyme concentration; consequently, these factors must be standardized if comparing our data with those from different labs.

HIV-1 protease [2] = biological target: T1, HIV-1 protease; experiment: FRET assay of HIV-1 protease inhibitory activity (IC50); format: biochemical; details: for IC50: HIV-1 protease 10.2 nM, 15 min preincubation at 25° C., EDANS/DABCYL substrate for C-protected, HiLyte Fluor 488/QXL 520 substrate for deprotected inhibitors
Procedure: The HIV-1 protease inhibitory activities of the compounds were determined by a FRET method. HIV-1 protease stock solution was diluted with assay buffer (0.1M sodium acetate, 1.0 M sodium chloride, 1.0 mM EDTA, 1.0 mM DTT, 10% DMSO, and 1.0 mg/mL BSA, pH 4.7). All inhibitors were dissolved in DMSO, and diluted to appropriate concentrations with deionized water such that the maximum conc. of DMSO in the buffer was 8.5%. EDANS/DABCYL-based FRET peptide substrate (Ex/Em=340/490 nm) solution in SensoLyte® 490 HIV Protease Assay Kit (Cat. #71127) and HiLyte Fluor™ 488/QXL™ 520-based FRET peptide substrate (Ex/Em=490/520 nm) solution in SensoLyte® 520 HIV Protease Assay Kit (Cat. #71147) were purchased from Anaspec. We needed to use these two different substrates because the compounds without C-protection (throughout this means protection on the oxygen at the C-terminus, a terminal OH) have weak fluorescence that interferes with that from the EDANS/DABCYL-based FRET peptide substrate (Ex/Em=340/490 nm) so an alternative substrate was used.
For the determination of IC50 values, HIV-1 protease (40 μL, 10.2 nM final concentration) and inhibitors (10 μL) were incubated for 15 min at 25° C. Substrate solutions (50 μL) in the buffer were added into the incubated solution to initiate the reaction. EDANS/DABCYL-based FRET peptide substrate was used for C-protected inhibitors, and HiLyte Fluor™ 488/QXL™ 520-based FRET peptide substrate was used for deprotected inhibitors. The total assay volume was 100 μL. Fluorescence was monitored for 5 min at 30° C. in a fluorescence microplate reader (BioTek) at Ex/Em=340/490 nm for ^tBu-protected inhibitors, and Ex/Em=490/520 nm for deprotected inhibitors. The initial velocities were plotted against log [inhibitor] and a sigmoidal curve was fitted to the data points using Graphpad Prism 5 software to obtain IC50 values.

GAPDH = GAPDH (Homo sapiens, UniProt P04406); details: rescue from apoptosis in vitro; cited from earlier work
[3] = FIG. 2A, C-protected compounds, Ex/Em=340/490 nm substrate, control 0.42
[4] = FIG. 2A, C-protected compounds, Ex/Em=340/490 nm substrate, uninhibited HIV-1 9.7±0.7
[5] = FIG. 2B, deprotected compounds, Ex/Em=490/520 nm substrate, control 0.013
[6] = FIG. 2B, deprotected compounds, Ex/Em=490/520 nm substrate, uninhibited HIV-1 9.0±0.6

GAPDH, sequence (P04406 whole entry, species assumed): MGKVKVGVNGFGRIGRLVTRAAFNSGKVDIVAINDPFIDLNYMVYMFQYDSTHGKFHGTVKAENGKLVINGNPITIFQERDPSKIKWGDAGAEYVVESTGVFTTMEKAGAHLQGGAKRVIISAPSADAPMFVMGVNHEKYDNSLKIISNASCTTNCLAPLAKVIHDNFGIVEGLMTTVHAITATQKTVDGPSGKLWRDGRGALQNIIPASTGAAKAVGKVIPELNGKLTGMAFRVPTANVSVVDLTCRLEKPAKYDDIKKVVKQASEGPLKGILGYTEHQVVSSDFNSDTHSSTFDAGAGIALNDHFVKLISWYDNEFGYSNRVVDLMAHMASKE

Row | SMILES | Ki (HIV-1 protease [1]) [µM] | IC50 (HIV-1 protease [2]) [µM] | also measured
1 | CC(C)C[C@H]1C(N2CC[C@H](N3C(=O)C=C(OC(C)(C)C)[C@@H]3C)C2)=CC(=O)N1[C@H]1CCN(C2=CC(=O)N[C@H]2Cc2ccccc2)C1 [1fla-^tBu, (S)-1-((S)-1-((S)-2-benzyl-5-oxo-2,5-dihydro-1H-pyrrol-3-yl)pyrrolidin-3-yl)-4-((S)-3-((S)-3-(tert-butoxy)-2-methyl-5-oxo-2,5-dihydro-1H-pyrrol-1-yl)pyrrolidin-1-yl)-5-isobutyl-1H-pyrrol-2(5H)-one] | 21 ± 2.1 | 54.9 ± 6 | y-intercept of Zhang-Poorman plot (HIV-1 protease [1]; [3]): 1.4; slope of Zhang-Poorman plot (HIV-1 protease [1]; [4]): 9.5±0.6
2 | CC[C@H](C)[C@H]1C(OC(C)(C)C)=CC(=O)N1[C@H]1CCN(C2=CC(=O)N([C@H]3CCN(C4=CC(=O)N[C@H]4CC(C)C)C3)[C@H]2C)C1 [1lai-^tBu, (S)-4-(tert-butoxy)-5-((S)-sec-butyl)-1-((S)-1-((S)-1-((S)-1-((S)-2-isobutyl-5-oxo-2,5-dihydro-1H-pyrrol-3-yl)pyrrolidin-3-yl)-2-methyl-5-oxo-2,5-dihydro-1H-pyrrol-3-yl)pyrrolidin-3-yl)-1H-pyrrol-2(5H)-one] | 19.4 ± 4.1 | 111 ± 18 | y-intercept of Zhang-Poorman plot (HIV-1 protease [1]; [3]): 2.6; slope of Zhang-Poorman plot (HIV-1 protease [1]; [4]): 10.4±1.0
3 | CC(C)C[C@H]1C(OC(C)(C)C)=CC(=O)N1[C@H]1CCN(C2=CC(=O)NC2Cc2ccccc2)C1 (stereo partly drawn) [2fl-^tBu, (5S)-1-((3S)-1-(2-benzyl-5-oxo-2,5-dihydro-1H-pyrrol-3-yl)pyrrolidin-3-yl)-4-(tert-butoxy)-5-isobutyl-1H-pyrrol-2(5H)-one] | – | 516 | –
4 | CC(C)C[C@@H]1NC(=O)C=C1N1CC[C@H](N2C(=O)C=C(OC(C)(C)C)[C@@H]2C)C1 [2la-^tBu, (5S)-4-(tert-butoxy)-1-((3S)-1-(2-isobutyl-5-oxo-2,5-dihydro-1H-pyrrol-3-yl)pyrrolidin-3-yl)-5-methyl-1H-pyrrol-2(5H)-one] | – | 176 ± 16 | –
5 | C#CCN(C)CC1=Cc2ccccc2Oc2ccccc21 [CGP3466] | – | – | rescuing effect relative to deprenyl (GAPDH): 100 ×
6 | CC(C)C[C@H]1C(N2CC[C@H](N3C(=O)CC(=O)[C@@H]3C)C2)=CC(=O)N1[C@H]1CCN(C2=CC(=O)N[C@H]2Cc2ccccc2)C1 [Compound 1fla-H] | 0.93 ± 0.3 | 46.5 ± 8 | y-intercept of Zhang-Poorman plot (HIV-1 protease [1]; [5]): 0.73; slope of Zhang-Poorman plot (HIV-1 protease [1]; [6]): 9.3±1.2
7 | CC[C@H](C)[C@H]1C(=O)CC(=O)N1[C@H]1CCN(C2=CC(=O)N([C@H]3CCN(C4=CC(=O)N[C@H]4CC(C)C)C3)[C@H]2C)C1 [Compound 1lai-H, (3′S,5S)-5-((S)-sec-butyl)-1′-((S)-1-((S)-1-((S)-2-Isobutyl-5-oxo-2,5-dihydro-1H-pyrrol-3-yl)pyrrolidin-3-yl)-2-methyl-5-oxo-2,5-dihydro-1H-pyrrol-3-yl)-[1,3′-bipyrrolidine]-2,4-dione] | 0.38 ± 0.07 | 3.7 ± 0.3 | y-intercept of Zhang-Poorman plot (HIV-1 protease [1]; [5]): 0.19; slope of Zhang-Poorman plot (HIV-1 protease [1]; [6]): 8.2±0.6
8 | CC(C)C[C@H]1C(=O)CC(=O)N1[C@H]1CCN(C2=CC(=O)N[C@H]2Cc2ccccc2)C1 [Compound 2fl-H, (3′S,5S)-1′-(2-benzyl-5-oxo-2,5-dihydro-1H-pyrrol-3-yl)-5-isobutyl-[1,3′-bipyrrolidine]-2,4-dione] | – | 419 | –
9 | CC(C)C[C@@H]1NC(=O)C=C1N1CC[C@H](N2C(=O)CC(=O)[C@@H]2C)C1 [Compound 2la-H] | – | – | inhibition of HIV-1 protease (HIV-1 protease [2]; FRET assay, result in words): did not show any inhibition
10 | CC[C@H](C)C1C(=O)CC(=O)N1[C@H]1CCN(C2=CC(=O)N[C@H]2CC(C)C)C1 (stereo partly drawn) [Compound 2li-H] | – | 623 | –
11 | CC(C)C[C@@H]1NC(=O)C=C1N1CC[C@H](N2C(=O)C=C(NCCOCCOCCNC3=CC(=O)N([C@H]4CCN(C5=CC(=O)N[C@H]5CC(C)C)C4)[C@H]3C)[C@@H]2C)C1 [Compound 13] | – | 84.4 ± 10 | inhibition of HIV-1 protease relative to 2la-^tBu (HIV-1 protease [2]; comparison of IC50 values): two times better inhibition

— patent US20130288331A1, “PEPTIDOMIMETIC COMPOUNDS AND RELATED METHODS” (priority 2012, published 2013)
